Experimental data reported in the NIST ThermoML archive (doi:10.1016/j.tca.2018.05.009).
“And” between values parts separate entries of the source, which are not always exact repeats. Equal entries are not always repeated. ± gives the expanded uncertainty stated by the source.

Details: Liquid, Transpiration method

CC(=O)C(=O)O [2-oxopropanoic acid]
Details	vapor or sublimation pressure
308.2 K	0.2899 ± 0.018 kPa
313.3 K	0.3753 ± 0.023 kPa and 0.3771 ± 0.023 kPa
315.9 K	0.434 ± 0.027 kPa
316.8 K	0.45 ± 0.028 kPa
318.3 K	0.509 ± 0.032 kPa
320.9 K	0.599 ± 0.038 kPa and 0.597 ± 0.037 kPa
325.8 K	0.798 ± 0.05 kPa
330.8 K	1.092 ± 0.068 kPa
333.2 K	1.274 ± 0.08 kPa
336.4 K	1.519 ± 0.094 kPa

COC(=O)C(C)=O [methyl 2-oxopropanoate]
Details	vapor or sublimation pressure
279.4 K	0.177 ± 0.011 kPa and 0.1749 ± 0.011 kPa
280.9 K	0.1942 ± 0.012 kPa
282.4 K	0.2279 ± 0.015 kPa
283.8 K	0.2536 ± 0.016 kPa
286.2 K	0.2982 ± 0.019 kPa and 0.293 ± 0.018 kPa
287 K	0.3042 ± 0.019 kPa
289.2 K	0.3569 ± 0.023 kPa
291 K	0.426 ± 0.027 kPa
294.9 K	0.527 ± 0.033 kPa
298.9 K	0.706 ± 0.045 kPa
302.9 K	0.919 ± 0.058 kPa
307.8 K	1.227 ± 0.077 kPa
